{"source": "patent US10435399B2", "about": "“HDAC6 inhibitory heterocyclic compound” (TAKEDA PHARMACEUTICAL COMPANY LIMITED, priority 2017, dated 2019)", "data": [{"biological_target": "T1, HDAC6 enzyme (Homo sapiens, UniProt Q9UBN7)", "T1 construct": "transducing full length HDAC6 gene into Sf-9 insect cells; GST; purchased SignalChem; host or cells: Sf-9 insect cells", "T1 sequence (Q9UBN7 1-1215)": "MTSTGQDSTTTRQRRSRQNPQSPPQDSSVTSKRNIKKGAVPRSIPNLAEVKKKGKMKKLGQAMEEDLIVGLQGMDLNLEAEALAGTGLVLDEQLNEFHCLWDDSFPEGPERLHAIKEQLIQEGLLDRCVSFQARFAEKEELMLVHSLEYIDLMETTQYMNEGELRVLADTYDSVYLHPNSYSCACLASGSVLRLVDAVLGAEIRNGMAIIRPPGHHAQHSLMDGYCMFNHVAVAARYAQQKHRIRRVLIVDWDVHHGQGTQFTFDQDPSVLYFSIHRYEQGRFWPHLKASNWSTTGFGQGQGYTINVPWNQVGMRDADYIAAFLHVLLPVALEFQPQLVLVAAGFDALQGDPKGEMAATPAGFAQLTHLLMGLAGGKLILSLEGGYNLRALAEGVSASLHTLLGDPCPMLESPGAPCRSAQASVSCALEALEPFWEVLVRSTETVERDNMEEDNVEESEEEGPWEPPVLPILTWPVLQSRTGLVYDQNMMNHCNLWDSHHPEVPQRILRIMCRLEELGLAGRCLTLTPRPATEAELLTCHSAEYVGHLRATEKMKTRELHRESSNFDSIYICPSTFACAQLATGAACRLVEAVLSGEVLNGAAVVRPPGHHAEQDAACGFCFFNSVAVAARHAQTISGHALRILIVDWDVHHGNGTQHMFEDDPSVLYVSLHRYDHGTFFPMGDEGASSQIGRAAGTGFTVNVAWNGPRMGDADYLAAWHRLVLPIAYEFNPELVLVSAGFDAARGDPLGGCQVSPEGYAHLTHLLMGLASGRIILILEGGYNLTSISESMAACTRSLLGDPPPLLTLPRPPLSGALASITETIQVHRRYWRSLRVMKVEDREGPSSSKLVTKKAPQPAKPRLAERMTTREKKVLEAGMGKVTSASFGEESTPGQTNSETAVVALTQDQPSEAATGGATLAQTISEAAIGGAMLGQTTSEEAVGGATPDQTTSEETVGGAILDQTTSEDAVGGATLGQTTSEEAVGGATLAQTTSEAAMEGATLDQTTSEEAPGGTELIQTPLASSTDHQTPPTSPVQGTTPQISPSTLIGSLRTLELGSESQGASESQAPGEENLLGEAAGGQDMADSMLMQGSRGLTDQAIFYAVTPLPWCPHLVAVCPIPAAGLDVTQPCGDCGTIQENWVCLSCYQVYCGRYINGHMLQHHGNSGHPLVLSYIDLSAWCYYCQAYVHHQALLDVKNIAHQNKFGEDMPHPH", "test": "HDAC6 enzyme inhibitory activity (HDAC-Glo I/II Assay kit)", "assay_type": "biochemical", "details": "10 μM; wells without enzyme = 100% inhibition", "procedure,_shortened": "(§1)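 Sf-9-derived GST-purified full-length HDAC6 + cpd, 60 min RT, 24 mM Tris pH 7.5/0.6 mM glutathione/0.01% Tween-20; add HDAC-Glo substrate-developer, 20 min RT; luminescence. No-enzyme = 100% inhibition.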", "units": {"HDAC6 inhibitory rate (%) (10 μM)": "%"}, "values": [{"compound": "O=C1c2cc(-c3nnc(C(F)F)o3)cnc2CN1[C@@H]1COCC[C@H]1Oc1ccc(F)c(F)c1", "note": "[Example 649, 1,5-anhydro-2,4-dideoxy-2-(3-(5-(difluoromethyl)-1,3,4-oxadiazol-2-yl)-5-oxo-5,7-dihydro-6H-pyrrolo[3,4-b]pyridin-6-yl)-3-O-(3,4-difluorophenyl)-threo-pentitol (Optical Isomer)]", "HDAC6 inhibitory rate (%) (10 μM)": 100}]}, {"biological_target": "T1, HDAC6 enzyme", "test": "HDAC6 enzyme inhibitory activity (HDAC-Glo I/II Assay kit)", "assay_type": "biochemical", "details": "10 μM; wells without enzyme = 100% inhibition; read-out: HDAC6 inhibitory rate (%) (10 μM)", "procedure,_shortened": "as §1", "units": {"inhibition at 10 µM": "%"}, "values": [{"compound": "O=C(N[C@@H]1CCCC[C@H]1N1Cc2ccc(-c3nnc(C(F)F)o3)cc2C1=O)c1cccc(Cl)c1", "note": "[Example 100, 3-chloro-N-((1R,2R)-2-(6-(5-(difluoromethyl)-1,3,4-oxadiazol-2-yl)-1-oxo-1,3-dihydro-2H-isoindol-2-yl)cyclohexyl)benzamide]", "inhibition at 10 µM": 100}, {"compound": "Cn1cc(-c2ccccc2F)c(N2Cc3ccc(-c4nnc(C(F)F)o4)cc3C2=O)n1", "note": "[Example 460, 6-(5-(difluoro-methyl)-1,3,4-oxadiazol-2-yl)-2-(4-(2-fluoro-phenyl)-1-methyl-1H-pyrazol-3-yl) isoindolin-1-one]", "inhibition at 10 µM": 102}, {"compound": "Cn1cc(-c2c(Cl)cccc2N2Cc3ccc(-c4nnc(C(F)F)o4)cc3C2=O)cn1", "note": "[Example 403, 2-(3-chloro-2-(1-methyl-1H-pyrazol-4-yl)phenyl)-6-(5-(difluoro-methyl)-1,3,4-oxadiazol-2-yl) isoindolin-1-one]", "inhibition at 10 µM": 102}, {"compound": "CC(C)(C(=O)N[C@@H]1CCCC[C@H]1N1Cc2ccc(-c3nnc(C(F)F)o3)cc2C1=O)C(F)(F)F", "note": "[Example 84, N-((1R,2R)-2-(6-(5-(difluoromethyl)-1,3,4-oxadiazol-2-yl)-1-oxo-1,3-dihydro-2H-isoindol-2-yl)cyclohexyl)-3,3,3-trifluoro-2,2-dimethylpropanamide]", "inhibition at 10 µM": 100}, {"compound": "O=C1c2cc(-c3nnc(C(F)F)o3)cnc2CN1Cc1ccc(Cl)s1", "note": "[Example 454, 6-((5-chloro-2-thienyl)methyl)-3-(5-(difluoro-methyl)-1,3,4-oxadiazol-2-yl)-6,7-dihydro-5H-pyrrolo [3,4-b]pyridin-5-one]", "inhibition at 10 µM": 101}, {"compound": "O=C1c2cc(-c3nnc(C(F)F)o3)ccc2CN1c1cccc(F)c1-c1cccc(F)c1", "note": "[Example 398, 2-(3′,6-difluoro-biphenyl-2-yl)-6-(5-(difluoro-methyl)-1,3,4-oxadiazol-2-yl) isoindolin-1-one]", "inhibition at 10 µM": 102}, {"compound": "O=C1c2cc(-c3nnc(C(F)F)o3)ccc2CN1c1cccc(Cl)c1-c1cnn(C(F)F)c1", "note": "[Example 402, 2-(3-chloro-2-(1-(difluoro-methyl)-1H-pyrazol-4-yl)phenyl)-6-(5-(difluoro-methyl)-1,3,4-oxadiazol-2-yl) isoindolin-1-one]", "inhibition at 10 µM": 100}, {"compound": "O=C1c2cc(-c3nnc(C(F)F)o3)ccc2CN1c1ccccc1-c1cccc(C(F)(F)F)c1", "note": "[Example 171, 6-(5-(difluoromethyl)-1,3,4-oxadiazol-2-yl)-2-(3′-(trifluoromethyl)biphenyl-2-yl)isoindolin-1-one]", "inhibition at 10 µM": 101}, {"compound": "O=C1c2cc(-c3nnc(C(F)F)o3)ccc2CN1c1cc(Cl)ccc1Br", "note": "[Example 253, 2-(2-bromo-5-chlorophenyl)-6-(5-(difluoromethyl)-1,3,4-oxadiazol-2-yl)isoindolin-1-one]", "inhibition at 10 µM": 72}, {"compound": "N#CCOc1cccc(-c2ccccc2N2Cc3ccc(-c4nnc(C(F)F)o4)cc3C2=O)c1", "note": "[Example 324, ((2′-(6-(5-(difluoromethyl)-1,3,4-oxadiazol-2-yl)-1-oxo-1,3-dihydro-2H-isoindol-2-yl)biphenyl-3-yl)oxy)-acetonitrile]", "inhibition at 10 µM": 97}, {"compound": "O=C1c2cc(-c3nnc(C(F)F)o3)ccc2CN1c1ccccc1-c1ccc(F)cc1", "note": "[Example 276, 6-(5-(difluoromethyl)-1,3,4-oxadiazol-2-yl)-2-(4′-fluorobiphenyl-2-yl)-isoindolin-1-one]", "inhibition at 10 µM": 98}, {"compound": "O=C1c2cc(-c3nnc(C(F)F)o3)cc(F)c2CN1[C@@H]1CCOC[C@@H]1NC(=O)C(F)(F)C(F)(F)F", "note": "[Example 365, N-((3R,4R)-4-(6-(5-(difluoromethyl)-1,3,4-oxadiazol-2-yl)-4-fluoro-1-oxo-1,3-dihydro-2H-isoindol-2-yl)tetrahydro-2H-pyran-3-yl)-2,2,3,3,3-pentafluoropropanamide]", "inhibition at 10 µM": 101}, {"compound": "O=C1c2cc(-c3nnc(C(F)F)o3)ccc2CN1N1CCCCC1c1ccccc1", "note": "(stereo not shown) [Example 490, 6-(5-(difluoro-methyl)-1,3,4-oxadiazol-2-yl)-2-(2-phenyl-piperidin-1-yl) isoindolin-1-one]", "inhibition at 10 µM": 98}, {"compound": "O=C1c2cc(-c3nnc(C(F)F)o3)cnc2CN1[C@@H]1CCCC[C@H]1Oc1ccccn1", "note": "[Example 593, 3-(5-(difluoromethyl)-1,3,4-oxadiazol-2-yl)-6-((1R,2R)-2-(pyridin-2-yloxy)cyclohexyl)-6,7-dihydro-5H-pyrrolo[3,4-b]pyridin-5-one]", "inhibition at 10 µM": 100}, {"compound": "O=C(CC1CCC1)N[C@@H]1CCCC[C@H]1N1Cc2ccc(-c3nnc(C(F)F)o3)cc2C1=O", "note": "[Example 110, 2-cyclobutyl-N-((1R,2R)-2-(6-(5-(difluoromethyl)-1,3,4-oxadiazol-2-yl)-1-oxo-1,3-dihydro-2H-isoindol-2-yl)cyclohexyl)acetamide]", "inhibition at 10 µM": 98}, {"compound": "O=C(N[C@@H]1CCCC[C@H]1N1Cc2ccc(-c3nnc(C(F)F)o3)cc2C1=O)C1CC1F", "note": "(stereo partly drawn) [Example 70, N-((1R,2R)-2-(6-(5-(difluoromethyl)-1,3,4-oxadiazol-2-yl)-1-oxo-1,3-dihydro-2H-isoindol-2-yl)cyclohexyl)-2-fluorocyclopropanecarboxamide]", "inhibition at 10 µM": 100}, {"compound": "CCCCCC(=O)N[C@@H]1CCCC[C@H]1N1Cc2ccc(-c3nnc(C(F)F)o3)cc2C1=O", "note": "[Example 51, N-((1R,2R)-2-(6-(5-(difluoromethyl)-1,3,4-oxadiazol-2-yl)-1-oxo-1,3-dihydro-2H-isoindol-2-yl)cyclohexyl)hexanamide]", "inhibition at 10 µM": 99}, {"compound": "O=C1c2cc(-c3nnc(C(F)F)o3)ccc2CN1c1ccccc1-c1cccc(F)n1", "note": "[Example 301, 6-(5-(difluoromethyl)-1,3,4-oxadiazol-2-yl)-2-(2-(6-fluoropyridin-2-yl)phenyl)-isoindolin-1-one]", "inhibition at 10 µM": 106}, {"compound": "O=C(N[C@@H]1CCCC[C@H]1N1Cc2ccc(-c3nnc(C(F)F)o3)cc2C1=O)C1CC1C(F)F", "note": "(stereo partly drawn) [Example 71, 2-(difluoromethyl)-N-((1R,2R)-2-(6-(5-(difluoromethyl)-1,3,4-oxadiazol-2-yl)-1-oxo-1,3-dihydro-2H-isoindol-2-yl)cyclohexyl)cyclopropanecarboxamide (optical isomer)]", "inhibition at 10 µM": 97}, {"compound": "O=C1c2cc(-c3nnc(C(F)F)o3)ccc2CN1c1ccccc1Br", "note": "[Example 112, 2-(2-bromophenyl)-6-(5-(difluoromethyl)-1,3,4-oxadiazol-2-yl)isoindolin-1-one]", "inhibition at 10 µM": 95}, {"compound": "O=C(C(F)F)N1CC[C@@H](c2ccc(F)cc2)[C@H](N2Cc3ccc(-c4nnc(C(F)F)o4)cc3C2=O)C1", "note": "(racemic) [Example 546, 2-((3SR,4SR)-1-(difluoroacetyl)-4-(4-fluorophenyl)piperidin-3-yl)-6-(5-(difluoromethyl)-1,3,4-oxadiazol-2-yl)isoindolin-1-one]", "inhibition at 10 µM": 100}, {"compound": "O=C1c2cc(-c3nnc(C(F)F)o3)ccc2CN1c1ccccc1-c1cccnc1", "note": "[Example 208, 6-(5-(difluoromethyl)-1,3,4-oxadiazol-2-yl)-2-(2-(pyridin-3-yl)phenyl)isoindolin-1-one]", "inhibition at 10 µM": 100}, {"compound": "O=C1c2cc(-c3nnc(C(F)F)o3)ccc2CN1[C@@H]1CCCC[C@H]1NC(=O)C1(c2ccccc2)CC1", "note": "[Example 87, N-((1R,2R)-2-(6-(5-(difluoromethyl)-1,3,4-oxadiazol-2-yl)-1-oxo-1,3-dihydro-2H-isoindol-2-yl)cyclohexyl)-1-phenylcyclopropanecarboxamide]", "inhibition at 10 µM": 99}, {"compound": "O=C1c2cc(-c3nnc(C(F)F)o3)ccc2CN1[C@@H]1CCCC[C@H]1NC(=O)C1(F)CC1", "note": "[Example 19, N-((1R,2R)-2-(6-(5-(difluoromethyl)-1,3,4-oxadiazol-2-yl)-1-oxo-1,3-dihydro-2H-isoindol-2-yl)cyclohexyl)-1-fluorocyclopropanecarboxamide]", "inhibition at 10 µM": 101}]}]}
